This experiment has as its target T1, human CD73 (Homo sapiens, UniProt P21589).
T1 sequence (P21589 27-549): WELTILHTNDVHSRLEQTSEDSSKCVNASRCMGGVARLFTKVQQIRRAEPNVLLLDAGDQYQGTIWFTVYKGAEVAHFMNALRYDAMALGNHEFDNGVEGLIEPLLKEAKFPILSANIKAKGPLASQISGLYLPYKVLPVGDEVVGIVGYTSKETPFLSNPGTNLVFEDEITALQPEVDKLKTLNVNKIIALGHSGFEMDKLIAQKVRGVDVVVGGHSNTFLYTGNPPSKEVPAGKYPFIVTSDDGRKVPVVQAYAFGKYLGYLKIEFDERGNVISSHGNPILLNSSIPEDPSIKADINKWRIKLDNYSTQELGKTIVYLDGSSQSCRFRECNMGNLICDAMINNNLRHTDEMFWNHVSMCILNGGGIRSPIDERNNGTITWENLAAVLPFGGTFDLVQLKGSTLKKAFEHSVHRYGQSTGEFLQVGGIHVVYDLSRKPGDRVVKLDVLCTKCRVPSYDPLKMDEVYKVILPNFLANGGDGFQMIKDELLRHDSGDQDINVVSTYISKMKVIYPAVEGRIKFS
As to the kind of experiment: Inhibition of Ecto-5′-nucleotidase (CD73) activity in CHO-CD73 cells, phosphate release from AMP. In kind it is cell-based. Conditions: CHO-K1 cells stably transfected with human CD73; 25 μM AMP; 50 minutes, 37° C.; read-out: Potency: CD73 IC50.

Regarding `N#Cc1ccc(Cn2nccc2-c2cc(F)c3cnn(-c4ccc5cn[nH]c5c4)c3c2)nc1` [Example 131], the IC50 is above 1000 nM.
With `N#Cc1ccc(Cn2nccc2-c2cc(F)c3nnn(-c4ccc5c(c4)NC(=O)C5)c3c2)cc1` [Example 156] the figure was above 1000 nM.
In the case of `N#Cc1ccc(Cn2nccc2-c2cnc3c(N)nn(-c4cc5[nH]ncc5cc4F)c3c2)cc1` [Example 364], the half-inhibitory concentration (IC50) was below 100 nM.
With `COc1ccc(Cn2nccc2-c2ccc3nnn(-c4ccc5cn[nH]c5c4)c3c2)cc1` [Example 55] the figure was 100 to 1000 nM; with `N#Cc1ccc(Cn2nccc2-c2cc(F)c3nnn(-c4ccc5[nH]c(=O)[nH]c5c4)c3c2)c(CN2CCOCC2)c1` [Example 268], above 1000 nM; with `CS(=O)(=O)Nc1cc(Cl)ccc1Cn1nccc1-c1cc(F)c2nnn(-c3ccc4[nH]c(=O)[nH]c4c3)c2c1` [Example 251], above 1000 nM.
The result for `Cc1ccc(Cn2nccc2-c2cc3c(cc2F)nnn3-c2ccc3cn[nH]c3c2)nc1` [Example 392] reads below 100 nM; that for `N#Cc1ccc(Cn2nccc2-c2cnc3c(Cl)nn(-c4ccc5cn[nH]c5c4)c3c2)cc1` [Example 371], 100 to 1000 nM; that for `N#Cc1ccc(Cn2c(-c3cc(F)c4nnn(-c5ccc6[nH]c(=O)[nH]c6c5)c4c3)c[nH]c2=O)cc1` [Example 333], 100 to 1000 nM.
With `CC(c1ccc(Cl)cn1)n1nccc1-c1cc2c(cc1F)nnn2-c1ccc2cn[nH]c2c1` (stereo not shown) [Example 383] the figure was 100 to 1000 nM.
`O=c1[nH]c2cc(-n3nnc4c(F)cc(-c5ccnn5Cc5ccc(Cl)cc5Cl)cc43)ccc2o1` [Example 159]: the IC50 is above 1000 nM.
With `Fc1cc(-c2ccnn2Cc2ccc(Cl)cc2Cl)cc2c1nnn2-c1ccc2cn[nH]c2c1` [Example 75] the figure was below 100 nM; with `O=c1[nH]c2ccc(-n3nnc4c(F)cc(-c5ccnn5Cc5cccc(F)c5Cl)cc43)cc2[nH]1` [Example 282], 100 to 1000 nM; with `Cc1cc(C#N)cnc1Cn1nccc1-c1cc(F)c2nnn(-c3ccc4[nH]c(=O)[nH]c4c3)c2c1` [Example 280], above 1000 nM.
The result for `N#Cc1ccc(Cn2nccc2-c2cc(F)c3nnn(-c4ccc5[nH]c(=O)[nH]c5c4)c3c2)c(C#N)c1` [Example 211] reads 100 to 1000 nM; that for `Cn1nc(-c2ccc3cn[nH]c3c2)c2cc(-c3ccnn3Cc3ccc(C#N)cc3)c[n+]([O-])c21` [Example 361], above 1000 nM.
The result for `CS(=O)(=O)c1cc(Cl)ccc1Cn1nccc1-c1cc(F)c2nnn(-c3ccc4[nH]c(=O)[nH]c4c3)c2c1` [Example 210] reads 100 to 1000 nM.
As for `N#Cc1ccc(Cn2nccc2-c2cc3c(c(N)nn3-c3ccc4[nH]c(=O)[nH]c4c3)[n+]([O-])c2)cc1` [Example 365], the IC50 is above 1000 nM.
With `CC(c1ccc(Cl)c[n+]1[O-])n1nccc1-c1cc(Cl)c2nnn(-c3ccc4cn[nH]c4c3)c2c1` (stereo not shown) [Example 379] the figure was 100 to 1000 nM; with `COc1nc(-c2ccnn2Cc2ccc(C#N)cc2)cc2c1nnn2-c1ccc2cn[nH]c2c1` [Example 357], 100 to 1000 nM.
As to `N#Cc1ccc(Cn2ncc(C#N)c2-c2cc(F)c3nnn(-c4ccc5[nH]c(=O)[nH]c5c4)c3c2)cc1` [Example 330], the concentration for half-maximal inhibition (IC50) was above 1000 nM.
With `COc1ccc(Cn2nccc2-c2cc3c(cn2)nnn3-c2ccc3[nH]c(=O)[nH]c3c2)c(F)c1` [Example 247] the figure was 100 to 1000 nM; with `Fc1cc(-c2ccnn2C2CCCOC2)cc2c1nnn2-c1ccc2cn[nH]c2c1` (stereo not shown) [Example 373], above 1000 nM.
With `CC(c1ccccn1)n1nccc1-c1cc(Cl)c2nnn(-c3ccc4cn[nH]c4c3)c2c1` (stereo not shown) [Example 99] the figure was above 1000 nM; with `N#Cc1ccc(Cn2nccc2-c2cc3c(c[n+]2[O-])nnn3-c2ccc3[nH]c(=O)[nH]c3c2)cc1` [Example 391], above 1000 nM.
With `c1cc(-c2ccc3nnn(-c4ccc5cn[nH]c5c4)c3c2)n(CC2CCCCO2)n1` (stereo not shown) [Example 93] the figure was above 1000 nM; with `FC(F)(F)Oc1ccc(Cn2nccc2-c2cc(Cl)c3nnn(-c4ccc5cn[nH]c5c4)c3c2)cc1` [Example 46], below 100 nM; with `CC(c1ccc(C#N)cc1)n1nccc1-c1cc2c(cc1F)nnn2-c1ccc2cn[nH]c2c1` (stereo not shown) [Example 382], 100 to 1000 nM.
In the case of `N#Cc1ccc(Cn2nccc2-c2cc(F)c3nnn(-c4ccc5c(N)n[nH]c5c4)c3c2)cc1` [Example 345], the IC50 lay within 100 to 1000 nM.
The result for `N#Cc1ccc(Cn2nccc2-c2cc(F)c3nnn(-c4ccc5[nH]c(=O)[nH]c5c4)c3c2)c(S(N)(=O)=O)c1` [Example 310] reads 100 to 1000 nM; that for `CN(C(=O)Cn1nccc1-c1cc(Cl)c2nnn(-c3ccc4cn[nH]c4c3)c2c1)c1ccccc1` [Example 187], above 1000 nM.
The result for `Cc1cnc(Cn2nccc2-c2cc(F)c3nnn(-c4ccc5cn[nH]c5c4)c3c2)c(F)c1` [Example 87] reads above 1000 nM; that for `Cc1cc2nnn(-c3ccc4cn[nH]c4c3)c2cc1-c1ccnn1C(C)c1ccc(C#N)cc1` (stereo not shown) [Example 398], above 1000 nM.
The result for `N#Cc1cc(F)c(Cn2nccc2-c2cc(Cl)c3nnn(-c4ccc5[nH]c(=O)[nH]c5c4)c3c2)c(F)c1` [Example 273] reads 100 to 1000 nM.
`Clc1ccccc1Cn1nccc1-c1cc(Cl)c2nnn(-c3ccc4cn[nH]c4c3)c2c1` [Example 52]: the IC50 is below 100 nM.
In the case of `O=c1[nH]c2ccc(-n3nnc4c(Cl)cc(-c5ccnn5-c5cccc6cccnc56)cc43)cc2[nH]1` [Example 213], the IC50 was above 1000 nM.
The result for `Fc1cc(-c2ccnn2Cc2ccccc2Cl)cc2c1nnn2-c1ccc2cn[nH]c2c1` [Example 65] reads 100 to 1000 nM; that for `N#Cc1ccc(Cn2nccc2-c2cnc3c(F)nn(-c4ccc5[nH]c(=O)[nH]c5c4)c3c2)cc1` [Example 329], 100 to 1000 nM; that for `Cc1ccc(Cn2nccc2-c2cc(Cl)c3nnn(-c4ccc5[nH]c(=O)[nH]c5c4)c3c2)c(Cl)c1` [Example 234], 100 to 1000 nM.
In the case of `O=c1[nH]c2ccc(-n3nnc4c(F)cc(-c5ccnn5Cc5nc6ccccc6[nH]5)cc43)cc2[nH]1` [Example 243], the IC50 fell in the range of 100 to 1000 nM.
Turning to `Cc1ccc(C(C)n2nccc2-c2cc(F)c3nnn(-c4ccc5cn[nH]c5c4)c3c2)nc1` (stereo not shown) [Example 396], the IC50 was in the range of 100 to 1000 nM.
For `N#Cc1ccc(Cn2nccc2-c2cnc3c(c2)c(-c2ccc4cn[nH]c4c2)nn3CCc2ccccc2)cc1` [Example 342], the IC50 was above 1000 nM.
`OC(Cn1nccc1-c1cc(F)c2nnn(-c3ccc4cn[nH]c4c3)c2c1)c1ccccc1` (stereo not shown) [Example 375]: the IC50 was above 1000 nM.
With `N#Cc1ccc(Cn2nccc2-c2cc(F)c3nnn(-c4ccc5oc(=O)[nH]c5c4)c3c2)cc1` [Example 166] the figure was above 1000 nM.
With `N#Cc1ccc(Cn2nccc2-c2cc(Cl)c3nnn(-c4ccc5[nH]c(=O)[nH]c5c4)c3c2)c(Cl)c1` [Example 250], the IC50 is below 100 nM.
The result for `N#Cc1ccc(Cn2nccc2-c2cc(F)c3nnn(-c4ccc5c(CCO)n[nH]c5c4)c3c2)cc1` [Example 349] reads above 1000 nM.
With `N#Cc1ccc(Cn2nccc2-c2cc3c(cn2)nnn3-c2ccc3[nH]c(=O)[nH]c3c2)cc1` [Example 154] the figure was 100 to 1000 nM; with `O=c1[nH]c2ccc(-n3nnc4cnc(-c5ccnn5Cc5ccc(Cl)cn5)cc43)cc2[nH]1` [Example 165], 100 to 1000 nM; with `Cc1ccc(Cn2nccc2-c2cc(Cl)c3nnn(-c4ccc5cn[nH]c5c4)c3c2)nc1` [Example 84], 100 to 1000 nM.
With `O=c1[nH]c2ccc(-n3nnc4c(Cl)cc(-c5ccnn5-c5cccc(C(F)(F)F)c5)cc43)cc2[nH]1` [Example 222] the figure was 100 to 1000 nM; with `Cc1coc(-c2cc(C#N)ccc2Cn2nccc2-c2cc(F)c3nnn(-c4ccc5[nH]c(=O)[nH]c5c4)c3c2)n1` [Example 320], 100 to 1000 nM; with `COc1cc(F)ccc1Cn1nccc1-c1cc2c(cn1)nnn2-c1ccc2[nH]c(=O)[nH]c2c1` [Example 237], above 1000 nM.
As to `N#Cc1ccc(C(CO)n2nccc2-c2cc(F)c3nnn(-c4ccc5cn[nH]c5c4)c3c2)cc1` (stereo not shown) [Example 419], the IC50 lay in the range of 100 to 1000 nM.
For the compound `O=c1[nH]c2ccc(-n3nnc4c(F)cc(-c5ccnn5Cc5ccc(Cl)cc5Cl)cc43)cc2[nH]1` [Example 170], the IC50 lay within 100 to 1000 nM.
The result for `N#Cc1ccc(Cn2nccc2-c2cc(F)c3nnn(-c4ccc5c(=O)[nH][nH]c5c4)c3c2)cc1` [Example 350] reads 100 to 1000 nM; that for `N#Cc1ccc(Cn2nccc2-c2cnc3cnn(-c4ccc5[nH]c(=O)[nH]c5c4)c3c2)cc1` [Example 180], above 1000 nM; that for `N#Cc1ccc(Cn2nccc2-c2cc(F)c3nnn(-c4ccc5cn[nH]c5c4F)c3c2)cc1` [Example 410], 100 to 1000 nM.
The result for `COc1ccc(Cn2nccc2-c2cc(F)c3nnn(-c4ccc5[nH]c(=O)[nH]c5c4)c3c2)c(F)c1` [Example 245] reads 100 to 1000 nM.
The result for `O=c1[nH]c2ccc(-n3nnc4c(F)cc(-c5ccnn5Cc5ccc6[nH]cnc6c5)cc43)cc2[nH]1` [Example 257] reads above 1000 nM; that for `COc1cc(F)ccc1Cn1nccc1-c1cc(F)c2nnn(-c3ccc4[nH]c(=O)[nH]c4c3)c2c1` [Example 236], above 1000 nM.
On to `Cc1ccc(C(C)n2nccc2-c2cc(Cl)c3nnn(-c4ccc5cn[nH]c5c4)c3c2)[n+]([O-])c1` (stereo not shown) [Example 390], for which the IC50 lay in the range of 100 to 1000 nM.

The term IC50 denotes the concentration that gives 50% inhibition.

Values taken from patent US11931343B2 (ARCUS BIOSCIENCES, INC., priority 2018, dated 2024).
